From patent publication US12466807B2, “Salt and crystal form of a FAK inhibitor” (Amplia Therapeutics Limited, priority 2019, dated 2025)
Values after ≈ are worked out from the molar mass of the structure shown. Read-outs that look alike come from different tables or passages of the source. One block for each compound: values may come before it.

Key:
[1] = Dynamic/gravimetric vapour sorption (DVS/GVS) hygroscopicity; type: physicochemical; conditions: at 90% R.H., 25° C.
Description: Approximately 10-20 mg of sample was placed into a mesh vapour sorption balance pan and loaded into the DVS-1 dynamic vapour sorption balance by Surface Measurement Systems. The sample was subjected to a ramping profile from 40-90% relative humidity (RH) at 10% increments, maintaining the sample at each step until a stable weight had been achieved (dm/dt 0.004%, minimum step length 30 minutes, maximum step length 500 minutes) at 25° C. After completion of the sorption cycle, the sample was dried using the same procedure to 0% RH and then a second sorption cycle back to 40% RH. Two cycles were performed. The weight change during the sorption/desorption cycles were plotted, allowing for the hygroscopic nature of the sample to be determined. XRPD analysis was then carried out on any solid retained.
Approximately 10-20 mg of sample was placed into a mesh vapour sorption balance pan and loaded into an IGASorp Moisture Sorption Analyser balance by Hiden Analytical. The sample was subjected to a ramping profile from 40-90% relative humidity (RH) at 10% increments, maintaining the sample at each step until a stable weight had been achieved (98% step completion, minimum step length 30 minutes, maximum step length 60 minutes) at 25° C. After completion of the sorption cycle, the sample was dried using the same procedure to 0% RH, and finally taken back to the starting point of 40% RH. Two cycles were performed. The weight change during the sorption/desorption cycles were plotted, allowing for the hygroscopic nature of the sample to be determined.

[2] = Thermodynamic solubility studies; type: physicochemical; conditions: for solubility thermodynamic at 24 h: buffer, 22 °C, thermodynamic from solid; for HPLC Conc: ca. 22° C.
Description: Thermodynamic Solubility Studies were carried out as follows: • Approximately 10 mg of Formula I free base Pattern 1 and L-tartrate Pattern 1, were weighed into a 1.5 mL screw-cap vial. The appropriate buffer system was added to create a slurry and the vials were shaken at ambient temperature (ca. 22° C.) for approximately 24 hours. • After this time, the slurries were transferred to centrifuge tubes containing nylon filters (0.22 μm) and filtered using a centrifuge for ca. 10 minutes. The isolated solids were then analyzed by XRPD and the filtrates measured by a pH meter and analyzed by HPLC for concentration.

[3] = Salt disproportionation studies; type: physicochemical
Description: Salt disproportionation studies were carried out as follows: • Approximately 10-20 mg of Formula I free base, L-tartrate Pattern 1 were weighed into HPLC vials. • 1 mL deionized water was then added to each vial and the vials capped and shaken at ambient temperature for 24 hours. • After this time, the samples were transferred to centrifuge tubes with nylon filters (0.22 μm) and centrifuged for approximately 15 minutes. The isolated solids were analyzed by XRPD and the filtrates analyzed by HPLC for concentration determination and the pH of all the filtrates were measured with a pH meter.

[4] = Oral exposure (pharmacokinetics) in rats; type: in vivo, male Sprague Dawley rats; conditions: rat
Description: To compare the exposure of the compound of Formula I in male Sprague Dawley rats following oral administration of the free base and L-tartrate salt at a target dose of 20 mg/kg (as free base equivalent).
Further details of the in-life, formulation and bioanalytical procedures together with the data analysis, are described in Appendix 1.
In-Life • The exposure of Formula I was studied in overnight-fasted male Sprague Dawley rats that had access to water ad libitum throughout the pre- and post-dose sampling period, and access to food was re-instated 4 h post-dose. In-life details are provided in Table A1-1. • Samples of arterial blood and total urine were collected up to 48 h post-dose. Arterial blood was collected directly into borosilicate vials (at 4° C.) containing heparin, Complete® (a protease inhibitor cocktail) and potassium fluoride to minimise potential for ex vivo degradation of Formula I in blood/plasma samples. Once collected, blood samples were centrifuged, supernatant plasma was removed and stored frozen (−80° C.) until analysis by LC-MS.
The extraction of the test compound from plasma samples was conducted using protein precipitation with acetonitrile. Both solution and plasma standards were freshly prepared, with each set of standards comprising at least seven different analyte concentrations. Solution standards were diluted from a stock solution (1 mg/mL in DMSO) with 50% acetonitrile in water. Plasma standards were prepared by spiking blank plasma (50 μL) with solution standards (10 μL) and the internal standard, diazepam (10 μL, 5 μg/mL).
Plasma samples were similarly prepared, except that blank acetonitrile (10 μL) was added instead of solution standards. Protein precipitation was carried out by the addition of acetonitrile (120 μL), vortexing (20 s) and centrifugation (10,000 rpm) in a microcentrifuge for 3 minutes. The supernatant was subsequently separated and 3 μL injected directly onto the column for LC/MS analysis using conditions tabulated below. All plasma concentrations are expressed as the non-salt equivalent.
Standard Calculations • Plasma concentration versus time data were analysed using non-compartmental methods (PKSolver Version 2.0). Standard calculations for each pharmacokinetic parameter are listed below.
(§1) [formula] • AUCIV Area under the plasma concentration versus time profile from time zero to infinity after IV administration (reported previously: CDCO_FAK_11_031) • t1/2 Elimination half-life • λ2 Terminal elimination rate constant after IV administration • BA Oral bioavailability • AUCoral Area under the plasma concentration versus time profile from time zero to infinity after oral administration • Cmax Maximum plasma concentration observed after oral administration. • Tmax Time to achieve Cmax • Differences in pharmacokinetic parameters (t½, AUC, Cmax, Tmax and BA) between free base and L-tartrate salt were evaluated using an unpaired t-test testing for significance at α=0.05 (GraphPad Prism, version 7.01)

[5] = IV pharmacokinetics in rats (reported previously); type: in vivo, male Sprague Dawley rats; conditions: IV 4.48 mg/kg, rat
Source text: as §1

[6] = PO 20 mg/kg (free base equivalent), mean ± SD, n = 3, 20 mg/kg

Hygroscopicity, mass uptake (DVS/GVS) [1]: Uptake of 5 wt %
Thermodynamic Solubility ([2]; Water): <100 µg/mL
pH Post-24 h Slurry ([2]; Water): 5.63
solubility thermodynamic at 24 h ([2]; pH 1, simulated gastric fluid, pH 1.0): 300 µg/mL (≈ 569 µM)
solubility thermodynamic at 24 h ([2]; pH 6.8, aqueous buffer, pH 6.8): < 100 µg/mL
pH Post-24 h Slurry ([2]; pH 1.0): 1.37
HPLC Conc ([2]; pH 1.0, 24 h slurry): 0.3 mg/mL
XRPD Result ([2]; pH 1.0, solid after 24 h slurry, listed as Free Base): Possible HCl Salt
XRPD Result ([2]; pH 1.0, solid after 24 h slurry, listed as free base): possible HCl salt
Thermodynamic Solubility ([2]; pH 4.5): 11900 µg/mL
pH Post-24 h Slurry ([2]; pH 4.5): 5.60
HPLC Conc ([2]; pH 4.5, 24 h slurry): 11.9 mg/mL
HPLC Conc ([2]; pH 4.5, 24 h slurry, listed as Formula I free base): 11.9 mg/mL
XRPD Result ([2]; pH 4.5, solid after 24 h slurry): Free Base
pH Post-24 h Slurry ([2]; pH 6.8): 7.44
HPLC Conc ([2]; pH 6.8, 24 h slurry, listed as Free Base): <0.1 mg/mL
HPLC Conc ([2]; pH 6.8, 24 h slurry, listed as free base): < 0.1 mg/mL
XRPD Result ([2]; pH 6.8, solid after 24 h slurry): Alternate crystalline form
XRPD Result ([2]; pH 6.8, solid after 24 h slurry, listed as Formula I free base): change in XRPD pattern
HPLC Conc ([2]; water, 24 h slurry): <0.1 mg/mL
HPLC Conc ([2]; water, 24 h slurry, listed as Formula I free base): < 0.1 mg/mL
XRPD Result ([2]; water, solid after 24 h slurry): Free Base
Water pH Post-24 h ([3]; deionized water, 24 h, ambient temperature): 5.63
XRPD Result ([3]; solid after 24 h in deionized water): Free Base
BA [4, 6]: 48.6 ± 9.2%
Tmax [4, 6]: 5.0 ± 0.0 h
% Dose in urine (unchanged Formula I) ([4]; PO 20 mg/kg, pooled urine up to 48 h, 20 mg/kg): 0.208 ± 0.24%
Cmax ([4]; male, Sprague Dawley, plasma, po, 20 mg/kg, PO 20 mg/kg (free base equivalent), mean ± SD, n = 3): 934 ± 260 nM
half-life ([4]; male, Sprague Dawley, plasma, po, 20 mg/kg, PO 20 mg/kg (free base equivalent), mean ± SD, n = 3, read-out: Apparent t1/2 (converted)): 5.6 ± 0.1 h
AUC(0-inf) ([4]; male, Sprague Dawley, plasma, po, 20 mg/kg, PO 20 mg/kg (free base equivalent), mean ± SD, n = 3, read-out: Plasma AUC0-inf): 9.93 ± 1.9 µM·h
Tmax ([4]; male, Sprague Dawley, plasma, po, 20 mg/kg, PO 20 mg/kg (free base equivalent), mean ± SD, n = 3, read-out: Tmax): 5 to 7 h
N-demethylation metabolite of Formula I ([4]; plasma and urine after PO 20 mg/kg, not quantified): detected in plasma and urine
Structure (SMILES): COc1cc(C2CCN(C)CC2)ccc1Nc1ncc(C(F)(F)F)c(CCc2ccccc2CC(N)=O)n1 [Free base]
Adverse reactions or compound-related side effects ([4]; PO 20 mg/kg, 48 h sampling period): No adverse reactions or compound-related side effects were observed

% Dose in urine (unchanged Formula I) ([5]; pooled urine up to 24 h): 1.14%
half-life ([5]; male, Sprague Dawley, plasma, mean of n = 2, read-out: Apparent t1/2 (converted)): 4.8 h
AUC(0-inf) ([5]; male, Sprague Dawley, plasma, mean of n = 2, read-out: Plasma AUC0-inf): 4.57 µM·h
Structure (SMILES): COc1cc(C2CCN(C)CC2)ccc1Nc1ncc(C(F)(F)F)c(CCc2ccccc2CC(N)=O)n1 [Formula I]
